The values below come from patent US20140065706A1, “MATERIALS AND METHODS FOR MOBILIZING CELLS INCLUDING CD34+, HEMATOPOIETIC COLONY FORMING, AND ENDOTHELIAL COLONY FORMING CELLS” (Indiana University Research and Technology Corp., priority 2010, published 2014).

The subject of experiment [1] is circulating endothelial colony forming cells (ECFC). Put plainly: Circulating endothelial colony forming cells (ECFC) in human volunteers before and after meloxicam. The following applies: post 5 day regimen; before treatment only 4/7 had detectable ECFC. The experiment is classed as in vivo. On the procedure:
For analysis of circulating ECFC, PB mononuclear cells were plated in media at 37° C., 5% CO2, 5% O2 in 6 well culture plates coated with type 1 collagen. Media was be replaced every other day for 7-14 days at which time the adherent colonies of endothelial cells (EC) are removed with Trypsin and replated in collagen coated culture wells at a single cell per well. After 14 days each well is visually examined to determine whether there are 2 or more cells per well and if so, the total number of EC counted.

Experiment [2] concerns progenitors from the bone marrow. Put plainly: Mobilization of progenitors from the bone marrow (NSAID comparison). As to conditions: in vivo.

Regarding `Cc1cnc(NC(=O)C2=C(O)c3ccccc3S(=O)(=O)N2C)s1` [Meloxicam, meloxicam], the “volunteers with detectable ECFC in 40 mL of blood post treatment” value in experiment [1] was 7/7.

Turning to `CC(=O)Oc1ccccc1C(=O)O` [aspirin], in experiment [2], the “ability to mobilize progenitors from the bone marrow” value is listed as “highly effective”.

As to `Cc1onc(-c2ccccc2)c1-c1ccc(S(N)(=O)=O)cc1` [valdecoxib], the “ability to mobilize progenitors from the bone marrow” value in experiment [2] was “unable to mobilize”.
